The text below walks through data of ChEMBL document CHEMBL1201862, “PubChem BioAssay data set” (2004).

For assay [1], the target named is T1, Tyrosine-protein phosphatase non-receptor type 22 (Homo sapiens, UniProt Q9Y2R2).
T1 sequence (Q9Y2R2 whole entry): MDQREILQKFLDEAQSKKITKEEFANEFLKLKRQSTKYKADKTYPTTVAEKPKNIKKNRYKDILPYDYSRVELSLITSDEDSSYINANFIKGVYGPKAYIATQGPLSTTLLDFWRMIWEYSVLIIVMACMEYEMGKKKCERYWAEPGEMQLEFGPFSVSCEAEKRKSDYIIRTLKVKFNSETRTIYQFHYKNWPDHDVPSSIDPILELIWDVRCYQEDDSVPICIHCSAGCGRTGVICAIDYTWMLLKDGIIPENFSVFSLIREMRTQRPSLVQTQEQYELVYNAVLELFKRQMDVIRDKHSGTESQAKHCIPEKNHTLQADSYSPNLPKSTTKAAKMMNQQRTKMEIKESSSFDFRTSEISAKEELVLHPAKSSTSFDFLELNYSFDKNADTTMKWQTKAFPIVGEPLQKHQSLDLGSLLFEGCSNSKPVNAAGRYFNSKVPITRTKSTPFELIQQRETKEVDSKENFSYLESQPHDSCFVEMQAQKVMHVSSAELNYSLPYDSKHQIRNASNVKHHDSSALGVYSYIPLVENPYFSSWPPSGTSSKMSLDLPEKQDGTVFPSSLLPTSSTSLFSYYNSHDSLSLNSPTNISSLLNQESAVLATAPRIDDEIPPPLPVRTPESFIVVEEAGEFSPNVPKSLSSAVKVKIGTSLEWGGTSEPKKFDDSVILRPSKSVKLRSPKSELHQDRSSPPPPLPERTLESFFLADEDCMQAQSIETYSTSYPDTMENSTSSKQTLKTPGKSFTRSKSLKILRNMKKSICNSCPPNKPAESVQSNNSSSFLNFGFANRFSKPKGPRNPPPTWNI
Kind of assay: SAR LYP1 Fluorescent Assay using OMFP substrate for In Vitro dose response studies - Set 2. [Related pubchem assays (depositor defined):AID1779, AID1784, AID2140, AID449726, AID488869]. The assay is classed as functional.

The target in assay [2] is T1, Tyrosine-protein phosphatase non-receptor type 22. Kind of assay: LYP (PTPN22) phosphatase inhibitor potency, SAR follow-up, biochemical, pCAP fluorogenic substrate, fluorescence, set 3 (AID 449727). Type of assay: functional.
For assay [3] the target is unchanged. The experiment in a line: SAR LYP1 Fluorescent Assay using OMFP substrate for In Vitro dose response studies - Set 3. [Related pubchem assays (depositor defined):AID1779, AID1784, AID2140, AID2686]. Type of assay: functional.
The target is the same in assay [4]. The experiment in a line: SAR LYP1 Fluorescent Assay using pCAP substrate for In Vitro dose response studies - Set 2. [Related pubchem assays (depositor defined):AID1779, AID1784, AID2135, AID449727]. The assay is classed as functional.
Assay [5] has as its target Tyrosine-protein phosphatase non-receptor type 12 (Homo sapiens, UniProt Q05209). The experiment in a line: SAR Selectivity Analysis of small molecule inhibitors of PEST using pCAP in a fluorescence assay. [Related pubchem assays (depositor defined):AID1779, AID1784, AID2135]. Type of assay: functional.
The target in assay [6] is T2, Tyrosine-protein phosphatase non-receptor type 7 (Homo sapiens, UniProt P35236).
T2 sequence (P35236 whole entry): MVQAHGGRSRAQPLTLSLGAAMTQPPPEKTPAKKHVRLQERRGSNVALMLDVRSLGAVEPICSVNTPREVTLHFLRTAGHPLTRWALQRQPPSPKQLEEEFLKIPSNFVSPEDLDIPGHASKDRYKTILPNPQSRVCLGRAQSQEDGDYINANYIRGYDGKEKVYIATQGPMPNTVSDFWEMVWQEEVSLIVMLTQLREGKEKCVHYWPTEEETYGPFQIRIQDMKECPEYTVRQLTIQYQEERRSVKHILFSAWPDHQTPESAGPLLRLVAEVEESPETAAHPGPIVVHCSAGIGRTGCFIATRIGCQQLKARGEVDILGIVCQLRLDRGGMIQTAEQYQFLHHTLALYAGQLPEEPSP
Kind of assay: HePTP (PTPN7) phosphatase inhibitor potency, SAR follow-up, biochemical, set 2 (AID 449736). Type of assay: functional.

In assay [7] the target is Troponin, cardiac muscle (Homo sapiens, UniProt P19429+P45379+P63316). Kind of assay: Fluorescence-based biochemical high throughput dose response assay for activators of the calcium sensitivity of cardiac Regulated Thin Filaments (RTF). [Related pubchem assays (depositor defined):AID493008, AID493018, AID504382, AID504383]. Type of assay: protein-complex assay.
Assay [8] deals with X-box-binding protein 1 (Homo sapiens, UniProt P17861). The assay is classed as functional, Cricetulus griseus.
Assay [9] addresses DNA damage-inducible transcript 3 protein (Mus musculus, UniProt P35639). The assay is classed as functional, Cricetulus griseus.
Assay [10] deals with T3, G-protein coupled receptor 35 (Homo sapiens, UniProt Q9HC97). The experiment in a line: SAR analysis of Antagonists of the GPR35 Receptor using an Image-Based Assay - Set 4. [Related pubchem assays (depositor defined):[…]]. The assay is classed as functional.
Assay [11] concerns the target T4, Cannabinoid receptor 2 (Homo sapiens, UniProt P34972). Kind of assay: SAR analysis of antagonists of the Cannabinoid Receptor 2 using an Image-Based Assay - Set 2. [Related pubchem assays (depositor defined):AID1961, AID1965]. Type of assay: functional.
Assay [12] addresses T5, Cannabinoid receptor 1 (Homo sapiens, UniProt P21554). Kind of assay: SAR analysis of antagonists of the Cannabinoid Receptor 1 using an Image-Based Assay - Set 3. [Related pubchem assays (depositor defined):AID1961, AID1965]. The assay is classed as functional.
Assay [13] concerns the target T4, Cannabinoid receptor 2. Kind of assay: SAR analysis of agonists of the Cannabinoid Receptor 2 using an Image-Based Assay - Set 2. [Related pubchem assays (depositor defined):AID1961, AID1965]. Type of assay: functional.
Assay [14] addresses G-protein coupled receptor 55 (Homo sapiens, UniProt Q9Y2T6). The experiment in a line: SAR analysis of selective Agonists of GPR55 using an Image-Based Assay - Set 2. [Related pubchem assays (depositor defined):AID1961, AID1965]. The assay is classed as functional.
In assay [15] the target is T3, G-protein coupled receptor 35. Kind of assay: SAR analysis of Agonists of the GPR35 Receptor using an Image-Based Assay - Set 3. [Related pubchem assays (depositor defined):AID1961, AID1965]. The assay is classed as functional.
Assay [16] concerns the target T5, Cannabinoid receptor 1. The experiment in a line: SAR analysis of agonists of the Cannabinoid Receptor 1 using an Image-Based Assay - Set 3. [Related pubchem assays (depositor defined):AID1961, AID1965]. Type of assay: functional.

Active and inactive are the calls of the source.
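Wherever Absolute IC50 (XBP1) is given: confirmatory dose-response counter-screen serving a CHOP assay.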

T3 sequence (Q9HC97 whole entry): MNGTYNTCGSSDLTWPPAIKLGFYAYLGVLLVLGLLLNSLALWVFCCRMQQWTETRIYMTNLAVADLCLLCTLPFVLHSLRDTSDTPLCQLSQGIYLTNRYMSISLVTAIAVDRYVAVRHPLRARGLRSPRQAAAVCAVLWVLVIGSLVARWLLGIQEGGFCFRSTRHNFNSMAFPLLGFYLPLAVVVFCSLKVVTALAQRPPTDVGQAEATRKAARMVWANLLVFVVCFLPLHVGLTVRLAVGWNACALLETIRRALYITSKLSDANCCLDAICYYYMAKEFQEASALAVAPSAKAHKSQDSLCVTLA
T4 sequence (P34972 whole entry): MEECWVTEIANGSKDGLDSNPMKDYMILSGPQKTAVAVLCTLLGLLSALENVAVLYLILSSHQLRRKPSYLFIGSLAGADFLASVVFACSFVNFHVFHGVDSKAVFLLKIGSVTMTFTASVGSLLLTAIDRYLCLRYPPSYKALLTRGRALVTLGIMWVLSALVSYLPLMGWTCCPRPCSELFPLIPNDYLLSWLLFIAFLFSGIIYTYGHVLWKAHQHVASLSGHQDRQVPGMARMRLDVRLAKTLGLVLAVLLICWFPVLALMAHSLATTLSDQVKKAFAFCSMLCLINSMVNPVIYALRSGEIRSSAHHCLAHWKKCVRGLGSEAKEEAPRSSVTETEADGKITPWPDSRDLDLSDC
T5 sequence (P21554 whole entry): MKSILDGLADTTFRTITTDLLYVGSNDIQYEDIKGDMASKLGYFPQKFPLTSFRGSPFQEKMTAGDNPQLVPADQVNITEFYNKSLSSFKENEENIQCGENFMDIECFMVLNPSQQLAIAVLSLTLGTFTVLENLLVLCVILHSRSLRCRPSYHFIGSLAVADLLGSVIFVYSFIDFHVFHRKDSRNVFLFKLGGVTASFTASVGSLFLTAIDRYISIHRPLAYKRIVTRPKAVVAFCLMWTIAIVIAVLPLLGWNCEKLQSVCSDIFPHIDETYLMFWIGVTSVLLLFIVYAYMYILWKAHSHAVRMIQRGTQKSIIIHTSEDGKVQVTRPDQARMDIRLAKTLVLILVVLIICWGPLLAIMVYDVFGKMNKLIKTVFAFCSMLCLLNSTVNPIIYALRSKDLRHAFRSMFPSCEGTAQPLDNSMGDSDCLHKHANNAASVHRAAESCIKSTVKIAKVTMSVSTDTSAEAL
G-protein coupled receptor 55, sequence (Q9Y2T6 whole entry): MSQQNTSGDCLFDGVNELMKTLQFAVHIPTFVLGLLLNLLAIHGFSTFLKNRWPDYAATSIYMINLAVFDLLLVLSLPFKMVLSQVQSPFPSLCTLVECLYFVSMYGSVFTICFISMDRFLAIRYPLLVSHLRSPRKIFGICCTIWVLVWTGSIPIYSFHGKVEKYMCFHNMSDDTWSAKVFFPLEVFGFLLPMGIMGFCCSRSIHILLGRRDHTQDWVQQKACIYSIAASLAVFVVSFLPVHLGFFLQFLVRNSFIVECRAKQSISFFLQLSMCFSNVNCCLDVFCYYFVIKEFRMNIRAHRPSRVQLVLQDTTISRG
Tyrosine-protein phosphatase non-receptor type 12, sequence (Q05209 whole entry): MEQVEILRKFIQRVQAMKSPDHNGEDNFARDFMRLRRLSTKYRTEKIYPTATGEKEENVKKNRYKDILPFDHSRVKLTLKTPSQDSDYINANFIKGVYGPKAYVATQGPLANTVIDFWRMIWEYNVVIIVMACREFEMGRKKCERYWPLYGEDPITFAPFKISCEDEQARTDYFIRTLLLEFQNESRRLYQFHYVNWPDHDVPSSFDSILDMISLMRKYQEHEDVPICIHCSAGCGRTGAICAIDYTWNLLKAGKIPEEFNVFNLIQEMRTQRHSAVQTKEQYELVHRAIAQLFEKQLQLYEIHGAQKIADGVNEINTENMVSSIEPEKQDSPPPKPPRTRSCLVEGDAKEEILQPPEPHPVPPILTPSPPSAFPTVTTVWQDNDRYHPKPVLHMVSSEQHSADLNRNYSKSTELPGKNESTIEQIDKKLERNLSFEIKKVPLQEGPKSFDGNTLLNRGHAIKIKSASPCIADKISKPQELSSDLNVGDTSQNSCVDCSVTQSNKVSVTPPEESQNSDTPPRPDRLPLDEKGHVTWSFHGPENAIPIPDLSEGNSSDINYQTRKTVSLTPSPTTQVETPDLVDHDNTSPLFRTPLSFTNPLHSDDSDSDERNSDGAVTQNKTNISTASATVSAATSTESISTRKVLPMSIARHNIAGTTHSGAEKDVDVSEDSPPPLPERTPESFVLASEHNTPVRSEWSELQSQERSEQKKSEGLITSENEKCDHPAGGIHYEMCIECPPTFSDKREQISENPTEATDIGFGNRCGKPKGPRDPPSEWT
DNA damage-inducible transcript 3 protein, sequence (P35639 whole entry): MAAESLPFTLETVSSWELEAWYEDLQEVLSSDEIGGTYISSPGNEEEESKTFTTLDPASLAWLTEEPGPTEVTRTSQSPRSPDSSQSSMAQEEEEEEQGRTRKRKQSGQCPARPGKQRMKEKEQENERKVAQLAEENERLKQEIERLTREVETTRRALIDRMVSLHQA
X-box-binding protein 1, sequence (P17861 whole entry): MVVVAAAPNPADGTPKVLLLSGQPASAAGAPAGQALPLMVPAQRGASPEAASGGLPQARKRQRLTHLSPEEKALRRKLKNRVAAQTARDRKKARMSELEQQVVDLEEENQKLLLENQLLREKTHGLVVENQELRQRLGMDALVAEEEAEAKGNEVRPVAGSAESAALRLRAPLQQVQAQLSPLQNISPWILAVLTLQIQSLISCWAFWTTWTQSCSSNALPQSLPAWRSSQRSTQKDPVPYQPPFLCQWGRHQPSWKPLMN

In the case of `COc1ccccc1NS(=O)(=O)c1cccc(C(=O)NN=Cc2ccc(OCC(=O)O)cc2)c1`, the IC50 in [1], in assay [2], in assay [3], in assay [4], in assay [5] and in assay [6] was > 100 µM (inactive) in each case.

In the case of `O=[n+]1c2c(n([O-])c3ccccc31)CCC2`, the EC50 in assay [7] is > 71.5 µM (inactive).

As for `COc1cccc(Nc2ncnc3c2cnn3-c2cccc(C)c2)c1`, the “Absolute IC50 (XBP1)” value in assay [8] worked out at 10 µM. For the same compound, the “Absolute IC50 (CHOP)” value in [9] was 10 µM.

For the compound `Cc1ccccc1N1CCN(C(=O)c2cc(S(=O)(=O)N3CCCCC3)ccc2N2CCCC2)CC1`, the IC50 in [10], in assay [11] and in [12] was > 32 µM (inactive) throughout. Besides, the EC50 in assay [13], in [14], in [15] and in assay [16] was > 32 µM (inactive) in each case.
